Source: PubChem BioAssay AID651886 (Southern Research Specialized Biocontainment Screening …, 2012)
Calls of active or inactive are those of the source. The rule behind the calls is not given here.

Each compound was assayed on VEEV TC-83 infected cells, virus titer reduction (assay: Secondary screen, VEEV TC 83 strain infected cells, log virus titer change, 5 µm (AID 651886)). Conditions: at 5 µM; stronger effect = lower value.
For `CCN1CCN(C)CC1=Nc1ccc([N+](=O)[O-])cc1C(=O)Nc1ccccc1`, the log virus titer change was < -7.2. Work on `CCN1CCN(Cc2nc3ccc([N+](=O)[O-])cc3c(=O)n2-c2ccccc2F)CC1` yielded a log virus titer change of -2.06. Work on `CN1CCN(C)C(=Nc2ccc([N+](=O)[O-])cc2C(=O)Nc2ccccc2F)C1` yielded a log virus titer change of -3.8. `CCN1CCN(Cc2nc3ccc([N+](=O)[O-])cc3c(=O)n2-c2ccc(F)cc2)CC1` showed a log virus titer change of -5.88. In the case of `CN1CCN(C)C(=Nc2ccc(C#N)cc2C(=O)Nc2ccccc2)C1`, the log virus titer change is reported as -5.82. Work on `CCN1CCN(Cc2nc3ccc(C#N)cc3c(=O)n2-c2ccccc2)CC1` yielded a log virus titer change of -1.65. With `CN1CCN(Cc2nc3ccc([N+](=O)[O-])cc3c(=O)n2-c2ccccc2F)CC1` the log virus titer change was < -7.76. With `O=c1c2cc([N+](=O)[O-])ccc2nc(CN2CCNCC2)n1-c1ccccc1` the log virus titer change was < -7.76. For `O=c1c2cc([N+](=O)[O-])ccc2nc(CN2CCCCC2)n1-c1ccccc1F`, the log virus titer change was -0.366 (inactive). `O=c1c2cc([N+](=O)[O-])ccc2nc(CN2CCNCC2)n1-c1ccccc1F` was tested, and the log virus titer change was < -7.76. `CCN1CCN(Cc2nc3ccc(I)cc3c(=O)n2-c2ccccc2)CC1` was tested, and the log virus titer change was -0.33 (inactive). For `CN1CCN(C)C(=Nc2ccc([N+](=O)[O-])cc2C(=O)Nc2ccccc2)C1`, the log virus titer change was < -7.2. `CCN1CCN(Cc2nc3ccc([N+](=O)[O-])cc3c(=O)n2-c2cccc(F)c2)CC1` gave a log virus titer change of -7.11. In the case of `CCN1CCN(Cc2nc3ccc([N+](=O)[O-])cc3c(=O)n2-c2ccccc2)CC1`, the log virus titer change is reported as < -7.54. Work on `CN1CCN(C)C(=Nc2ccc(C#N)cc2C(=O)Nc2cccc(F)c2)C1` yielded a log virus titer change of -1.43. For `COc1ccc(NC(=O)c2cc([N+](=O)[O-])ccc2N=C2CN(C)CCN2C)cc1`, the log virus titer change was < -7.2.
